Reference: the NIST ThermoML archive (doi:10.1016/j.jct.2014.08.010)
± gives the expanded uncertainty stated by the source.

Key:
[1] = DTA
[2] = Molar enthalpy of transition or fusion; conditions: DSC

| Triple point temperature ([1]; Crystal) | Triple point temperature ([1]; Nematic liquid crystal) | Molar enthalpy of transition or fusion ([2]; Crystal) | Molar enthalpy of transition or fusion ([2]; Nematic liquid crystal) | Structure (SMILES) |
| --- | --- | --- | --- | --- |
| 305.15 ± 0.5 K | 316.15 ± 0.5 K | 5.82 ± 0.172 kcal/mol | 0.198 ± 0.0382 kcal/mol | CCCCCCCc1ccc(-c2ccc(C#N)cc2)cc1 [4'-heptyl-4-biphenylcarbonitrile] |
| 297.55 ± 0.5 K | 308.65 ± 0.5 K | 3.26 ± 0.108 kcal/mol | 0.117 ± 0.0359 kcal/mol | CCCCCc1ccc(-c2ccc(C#N)cc2)cc1 [4'-n-pentyl-4-biphenylcarbonitrile] |
